Data reported in patent US20260199902A1, “SYSTEM AND APPARATUS FOR THE HAND-HELD AMPLIFICATION AND DETECTION OF NUCLEIC ACIDS” (Darwin Biosciences, Inc., priority 2022, published 2026).
Counter-ions that a name gives are not always drawn. Each block holds one compound with its values, some of them ahead of it.

What was measured:
saliva RNases = test: RNase activity assay: cell line RNA incubated with treated saliva, read on Agilent TapeStation; format: biochemical, human; parameters: key: Pass (green) indicating sufficient RNase inactivation; Partial Pass (yellow) indicating partial RNase inactivation; Fail (red) indicating incomplete RNase inactivation
Method: FIG. 27. Example of saliva RNase activity assays assayed on TapeStation High Sensitivity RNA ScreenTapes (5067; Agilent). Results from three independent assays are shown. Lanes 1-3 (left to right) are experimental controls including 500 μg RNA in RNase free water, untreated saliva without added cell line RNA, and untreated saliva incubated with cell line RNA. Lanes labeled “Incomplete RNase Inactivation” contain no ribosomal RNA bands, indicating RNase activity is present. Lanes labeled “Sufficient RNase Inactivation” contain sharp ribosomal bands (similar to RNA in water), indicating RNases have been inactivated. gDNA=genomic DNA.
(§1) To screen for chemical and protein-based reagents that inhibit saliva RNases, we developed an RNase activity assay in which purified cell line RNA was incubated for 30 min at 37° C. with saliva samples after treatment with potential reagents for RNase inhibition (FIG. 2.5.3). After incubation, RNA was purified and analyzed on an Agilent TapeStation. Sharpness of the eukaryotic ribosomal RNA bands (28S and 18S) were compared to determine RNase activity in the presence of various inhibitors. In addition, the Agilent TapeStation calculates an RNA Integrity Score (RIN) as a measure of RNA quality (RIN of 10-fully intact RNA, RIN of 1=fully degraded RNA), however contaminating nucleic acid (e.g., 16S and 23S rRNA from bacteria) interferes with this calculation.
as §1, with “10=fully” for “10-fully”, “calculation. In total, 54 unique reagents, concentrations, and buffer formulations were tested for their ability to inactivate RNases.” for “calculation.”

RT-RPA reactions = test: RT-RPA interference (compatibility) testing of lysis and RNase inhibitor reagents, agarose gel; format: biochemical; parameters: key: Pass (green) indicates that reagents did not interfere with RT-RPA; Partial Pass: Partial pass (yellow) indicates that reagents had partial interference in RT-RPA; Fail (red) indicates reagents completely interfered with RT-RPA reactions
Method: FIG. 28. Reagent interference testing in RT-RPA. Lysis and RNase inhibitor reagents tested in RT-RPA using cDNA and RNA templates. RT-RPA reactions were prepared with varying concentrations of reagents, as labeled above (final concentrations in a 20 μl RT-RPA reaction are reported). Amplification products were run on a 2% agarose gel and band intensities were compared to control (No added reagent) reactions. Reactions labeled in red contain no reverse transcriptase. The expected size of the CXCL8 amplicon is indicated to the left of the gel. GuHCI=Guanidine hydrochloride, Triton=Triton X-100.
Reagents under consideration for the device were tested for compatibility with RT-RPA at the concentrations expected to be required for lysis. To test for interference, lysis or RNase inhibitor reagents were spiked into RT-RPA reactions with purified cell line RNA or cDNA as a template. Reactions were analyzed by agarose gel for the presence or absence of amplified products. […]

RT-RPA reaction = test: RT-RPA efficiency in the presence of Buffer 20 and Buffer 21; format: biochemical; details: 100 mM
Method: FIG. 7. Evaluation of optimized sample treatment and lysis buffer components. (A) RT-RPA efficiency in the presence of Buffer 20 and Buffer 21, using cell line RNA as (+) template and (−) no template control. (B) Optimized early/pre-infection diagnostic sample treatment and lysis tested on 5 individuals. −RT=no reverse transcriptase was included in the RT-RPA reaction, +RT=Superscript IV was added to the RPA reaction at a final concentration of 1 U/μl.
We therefore modified the lysis buffer formulation to Buffer 21 (5 mM TCEP-HCl, 7.5% Tween-20, 0.00167% Digitonin), which removed the guanidine hydrochloride and RNase Inhibitor. […] The present inventors lyophilized Buffer 21 into the selected lysis pad material and processed saliva from five donors through the device (FIG. 7B). This processing included expression of the sample from a collection pad, which pushed the sample through the lysis pad embedded with Buffer 21 and 4 U/μl of mRI, followed by the 10 μm filter, 100 mg of Chelex-100, and 1 μm filter. The resulting sample was used to reconstitute RPA reagents (Twist rehydration buffer and Twist enzymes), and reverse transcriptase and modified RPA primers were added to the reaction.

[1] = tested on: primer dimers in multiplexed RT-RPA; test: Betaine as additive in multiplexed RT-RPA; format: biochemical; details: preliminary experiments
Source text: A challenge of multiplexed RT-RPA is an increased tendency to form primer dimers that impact the readout on a lateral flow strip. We have explored the use of betaine as an additive to reduce the occurrence of primer dimers. Betaine can prevent the formation of primer dimers in isothermal amplification by effectively lowering the melting temperature of an oligo sequence. […] Thus, betaine may be an effective additive to reduce primer dimers in RT-RPA reactions in certain embodiments.

[2] = 100 mM final in RT-RPA reaction

Compound: O=C(O)CCP(CCC(=O)O)CCC(=O)O [TCEP-neutral]
Inactivation of saliva RNases, Result (saliva RNases; 5 mM and 50 mM): Fail

Compatibility in RT-RPA, Result (RT-RPA reactions; 0.01%-0.25% final in RT-RPA reaction): Partial Pass
Compound: IGEPAL

Compound: C[C@@H]1CC[C@@]2(OC1)O[C@H]1[C@@H](O)[C@H]3[C@@H]4CC[C@H]5C[C@@H](O[C@@H]6O[C@H](CO)[C@H](O[C@@H]7O[C@H](CO)[C@@H](O)[C@H](O[C@@H]8OC[C@@H](O)[C@H](O)[C@H]8O)[C@H]7O[C@@H]7O[C@H](CO)[C@H](O)[C@H](O[C@@H]8O[C@H](CO)[C@@H](O)[C@H](O)[C@H]8O)[C@H]7O)[C@H](O)[C@H]6O)[C@H](O)C[C@]5(C)[C@H]4CC[C@]3(C)[C@H]1[C@@H]2C [digitonin]
Compatibility in RT-RPA, Result (RT-RPA reactions; 1% final in RT-RPA reaction): Pass

Compound: O[C@@H](CS)[C@@H](O)CS [DTT]
Inactivation of saliva RNases, Result (saliva RNases; 10 mM): Fail

Compound: Cl.N=C(N)N [GuHCl, Guanidine hydrochloride]
Compatibility in RT-RPA, Result (RT-RPA reactions; [2]): Pass
Compatibility in RT-RPA, Result (RT-RPA reactions; 200 mM final in RT-RPA reaction): Fail
Effect on RT-RPA reaction efficiency (RT-RPA reaction): reduces the overall efficiency of the RT-RPA reaction

Compound: OCCS [beta-mercaptoethanol]
Inactivation of saliva RNases, Result (saliva RNases; 143 mM): Fail

Compatibility in RT-RPA, Result (RT-RPA reactions; 0.01% final in RT-RPA reaction): Partial Pass
Compatibility in RT-RPA, Result (RT-RPA reactions; 0.1% final in RT-RPA reaction): Fail
Compound: CCCCCCCCCCCC(=O)N(C)CC(=O)[O-].[Na+] [sarkosyl]

Compatibility in RT-RPA, Result (RT-RPA reactions; 1% final in RT-RPA reaction): Pass
Compatibility in RT-RPA, Result (RT-RPA reactions; 5%-10% final in RT-RPA reaction): Partial Pass
Compound: Triton X-100

Compound: N#CS.N=C(N)N [GTC]
Compatibility in RT-RPA, Result (RT-RPA reactions; [2]): Fail

Compatibility in RT-RPA, Result (RT-RPA reactions; 2 mM final in RT-RPA reaction): Pass
Compatibility in RT-RPA, Result (RT-RPA reactions; 6 mM final in RT-RPA reaction): Partial Pass
Compatibility in RT-RPA, Result (RT-RPA reactions; 18 mM final in RT-RPA reaction): Fail
Compound: O=C(O)CN(CCN(CC(=O)O)CC(=O)O)CC(=O)O [EDTA]

Compatibility in RT-RPA, Result (RT-RPA reactions; 0.005% final in RT-RPA reaction): Fail
Compound: CCCCCCCCCCCCOS(=O)(=O)[O-].[Na+] [SDS, sodium dodecyl sulfate]

Compound: C[N+](C)(C)CC(=O)O [betaine]
Primer noise [1]: can reduce primer noise in multiplexed RT-RPA reactions

Compound: Cl.O=C(O)CCP(CCC(=O)O)CCC(=O)O [TCEP-HCl]
Inactivation of saliva RNases, Result (saliva RNases; 5 mM and 12.5 mM): Fail
Inactivation of saliva RNases, Result (saliva RNases; 50 mM): Pass
Compatibility in RT-RPA, Result (RT-RPA reactions; 5 mM final in RT-RPA reaction): Partial Pass
Compatibility in RT-RPA, Result (RT-RPA reactions; 10 mM final in RT-RPA reaction): Fail

Compound: Cl [HCl, Hydrochloric acid]
Compatibility in RT-RPA, Result (RT-RPA reactions; 5 mM final in RT-RPA reaction): Pass
